Reference: patent US20240016772A1, “Compositions And Methods Comprising D-Cysteine Or A D-Derivative Thereof” (UNIVERSITE DE GENEVE, priority 2020, published 2024)

Legend:
A375 melanoma cells = test: Colony formation / proliferation, A375; format: cell-based; details: colony formation assays or spheroids
Protocol: (§1) We therefore decided to test whether the D-cysteine-mediated inhibition of OCR could affect cell growth in a regular normal medium complemented with fetal calf serum. Most culture media used for cell culture contain 300 μM L-cystine. […] Importantly, some cancer cell lines, including HeLa cells (FIG. 4A), the MPM cell line H2052/484 (FIG. 4B), and osteosarcoma cell line 143B (not shown), were insensitive both in 2D cultures or in colony formation assays. The decrease in numbers of cells seen after 72 h exposure to D-cysteine was due to decreased cell proliferation. […] Importantly, in contrast to the results with cancer cells, normal human bronchial epithelial BEAS-2B cells were resistant to D-cysteine exposure even at very high concentration (FIG. 5B).

[1] = tested on: osteosarcoma cell line 143B; test: 2D culture / colony formation, 143B; format: cell-based; details: 2D cultures or colony formation assays; not shown
Protocol: as §1

[2] = D-cysteine quantification in blood (serum) of mice after gavage; format: in vivo; details: 500 mg/kg by gavage, no DAAO inhibitor, data not shown
Protocol: As described below, we have initiated experiments in which we administer D-cysteine (500 mg/kg) by gavage, and using the technique described in^37, we have measured the levels of D-cysteine in serum. […] We reasoned that the enzyme D amino oxidase (DAAO), which is known to oxidize D-amino acids and which in mice is highly expressed in the kidney, could explain the rapid clearance of D-cysteine from the blood. We therefore co-administered D-cysteine with an inhibitor of DAAO (JHU 1377). Using this protocol, we achieved higher levels of D-cysteine in the blood (Table 2) and indeed levels higher than that needed to repress tumor cell growth in vitro. Thus far we have only assessed the pharmacokinetics of D-cysteine during the first 6 h following administration. In future experiments we plan to repeat the analysis over longer time periods.
DAAO inhibitor JHU 1377 (30 mg/kg) was injected into mice, followed 2 h later by D-cysteine gavage (500 mg/kg). Blood was collected after 2, 4, and 6 h and levels of L- and D-cysteine were quantified in the serum.

A549 cells [3] = test: Iron concentration in A549 cells by ICP-MS; format: cell-based, human; details: 72 h
Protocol: FIG. 3. Iron concentration in A549 cells cultured in the presence or absence of D-Cysteine for 72 h. Iron was measured using ICP-MS (Inductively coupled plasma mass spectrometry).
Moreover, D-cysteine could also trigger ferritinophagy, which is a process triggered in cells lacking iron. The most likely explanation is that D-cysteine, which accumulates in cells since it is not consumed during protein synthesis or other pathways, can react with iron through its thiol group, thus acting as an iron chelator. […] As a consequence, intracellular iron is depleted, and cells trigger ferritinophagy releasing ferric iron, thus leading to ROS production, lipid peroxidation and cell death.

[4] = tested on: LuCa62 lung adenocarcinoma cells; test: Colony formation / spheroid formation assay, LuCa62; format: cell-based, human; details: colony formation (0.1 mM, 2 weeks) or spheroids (0.1, 0.2 or 0.5 mM, 17 days)
Protocol: (§2) FIGS. 4A-4D: D-cysteine affects tumor cell viability. Colony formation assays in presence or absence 0.1 mM D-cysteine (D-Cys) for 2 weeks. FIG. 4A: Lung tumor cell lines+cervix cell line (HeLa). FIG. 4B: MPM cell lines. FIG. 4C: A549. FIG. 4D: LuCa62 spheroid formation in presence or absence of 0.1 mM, 0.2 mM or 0.5 mM D-cysteine for 17 days.
as §1

A549 cells [5] = test: Proteome analysis (LC-MS/MS with TMT) of A549 cells exposed to D-cysteine; format: cell-based, human; details: 500 μM, 72 h, FDR<0.01
Protocol: To understand how D-cysteine modifies protein expression, A549 cells were grown in the presence of D-cysteine for 3 days and total cellular proteins were compared to control cells grown in parallel in the presence of L-cysteine. For these experiments liquid chromatography-tandem mass spectrometry (LC-MS/MS) coupled with tandem mass tagging (TMT) was employed, a procedure which enables simultaneous protein identification and relative quantification of two different samples in the same proteomics experiment.
Proteome analysis of A549 cells cultured in the absence or presence of 500 μM D-cysteine for 72 h. […] FC=Fold change.

[6] = tested on: MDA-MB-231 triple-negative breast cancer cells; test: Colony formation / proliferation, MDA-MB-231; format: cell-based; details: colony formation assays or spheroids
Protocol: as §1

[7] = tested on: cell lines derived from malignant pleural mesothelioma (MPM); test: Colony formation, MPM cell lines; format: cell-based; details: colony formation assays or spheroids
Protocol: as §2, §1

HeLa cells = test: 2D culture / colony formation, HeLa; format: cell-based; details: 2D cultures or colony formation assays
Protocol: as §2, §1

[8] = tested on: H1299 lung adenocarcinoma cells; test: Colony formation / proliferation, H1299; format: cell-based; details: colony formation assays or spheroids
Protocol: as §2, §1

[9] = rat; 500 mg/kg daily by gavage for one month; cited from earlier work
[10] = tested on: MDA-MB-231 breast cancer cells; test: Proliferation of MDA-MB-231 cells with D-cysteine and 3-MST inhibitor HMPSNE; format: cell-based; details: D-cysteine 100 μM and/or HMPSNE
Protocol: A549 lung tumor cells (FIG. 10A) or MDA-MB-231 breast tumor cells (FIG. 10B) were cultured in complete media (CM) in the absence or presence of 100 μM D-cysteine (D-Cys), with (grey bars) or without (black bars) HMPSNE, a cell-membrane permeable inhibitor of 3-MST. Cell numbers were counted after 72 hours. * P<0.05, ** P<0.01, *** P<0.001, **** P<0.0001.
Furthermore, as mentioned above, it exerts toxic effects via iron chelation. Therefore, to survive D cysteine, cells need to increase its catabolism. There are two main pathways for cysteine catabolism: one is via its enzymatic breakdown to produce hydrogen sulfur and organic intermediates that will serve as carbon sources, and the second is via oxidative metabolism through cysteine dioxygenase 48. Inhibition of cysteine catabolism can be obtained with inhibitors of the key enzymes participating in this pathway. We have used a commercially available inhibitor of 3-MST, HMPSNE 49 to inhibit the enzyme in A549 lung cancer cells and in MDA-MB-231 breast cancer cells in the presence or absence of D cysteine.

MPM cell line H2052/484 = test: 2D culture / colony formation, H2052/484; format: cell-based; details: 2D cultures or colony formation assays
Protocol: as §2, §1

SMILES: N[C@H](CS)C(=O)O [D-cysteine]
- antiproliferative effect, A375 (A375 melanoma cells): antiproliferative effect
- sensitivity of osteosarcoma cell line 143B [1]: insensitive
- initial level of D-cysteine in the blood [2]: around 200 μM
- concentration at 2 h ([2]; mouse, serum, oral, read-out: level of D-cysteine in the blood within the first 2 h): 5 µM
- cellular iron (ICP-MS) (A549 cells [3]): decrease in cellular iron
- antiproliferative effect, LuCa62 [4]: antiproliferative effect
- FC (log2) CIAO1 protein (A549 cells [5]): −1.179 log2
- FC (log2) COX4I1 protein (A549 cells [5]): −0.6951 log2
- FC (log2) MT-CO3 protein (A549 cells [5]): −1.538 log2
- FC (log2) MT-ND4 protein (A549 cells [5]): −1.86 log2
- FC (log2) NDUFA4 protein (A549 cells [5]): −0.5939 log2
- FC (log2) NDUFA5 protein (A549 cells [5]): −0.8033 log2
- FC (log2) NDUFA7 protein (A549 cells [5]): −1.584 log2
- FC (log2) NDUFA9 protein (A549 cells [5]): −0.5906 log2
- FC (log2) NDUFA10 protein (A549 cells [5]): −0.8723 log2
- FC (log2) NDUFA12 protein (A549 cells [5]): −0.6836 log2
- FC (log2) NDUFS1 protein (A549 cells [5]): −1.133 log2
- FC (log2) NDUFS4 protein (A549 cells [5]): −0.9309 log2
- FC (log2) NDUFS7 protein (A549 cells [5]): −0.8355 log2
- FC (log2) NDUFS8 protein (A549 cells [5]): −0.8273 log2
- FC (log2) NDUFV1 protein (A549 cells [5]): −1.064 log2
- FC (log2) NDUFV2 protein (A549 cells [5]): −0.7451 log2
- FC (log2) SDHB protein (A549 cells [5]): −1.214 log2
- antiproliferative effect, MDA-MB-231 [6]: antiproliferative effect
- antiproliferative effect, MPM-derived cell lines [7]: antiproliferative effect
- sensitivity of HeLa cells (HeLa cells): insensitive
- antiproliferative effect, H1299 [8]: antiproliferative effect
- adverse effect on the animals [9]: no adverse effect
- cell proliferation (cell numbers after 72 hours), MDA-MB-231 [10]: did not significantly alter the growth
- sensitivity of MPM cell line H2052/484 (MPM cell line H2052/484): insensitive
